Test results: ChEMBL document CHEMBL3217442, “Synthesis and bioevaluation of aryl hydroxamates distinguishing between NAD+ and ATP-dependent DNA ligases” (Medchemcomm, 2012)
≈ marks a conversion by molar mass, not a printed value. Calls of active or inactive are those of the source. No cut-off for these calls is given here.

Tests used:
Escherichia coli [1] = test: Antibacterial activity against Escherichia coli GR501 harboring temperature sensitive lig251 mutant rescued with T4 DNA ligase after 20 hrs; assay type: functional
Salmonella typhimurium [2] = test: Antibacterial activity against Salmonella typhimurium TT15151 harboring LigA null mutant rescued with ATP-dependent DNA ligase after 20 hrs; assay type: functional, Salmonella enterica subsp. enterica serovar Typhimurium
Salmonella typhimurium [3] = test: Antibacterial activity against Salmonella typhimurium LT2 expressing LigA after 20 hrs; assay type: functional
[4] = Inhibition of Bacteriophage […] using 22-mer and 18-mer DNA complementary strand as substrate after 1 hr by 15% polyacrylamide gel electrophoresis; design: species or system Tequatrovirus T4
DNA ligase 1 = DNA ligase 1 (Homo sapiens, UniProt P18858); test: Inhibition of human DNA ligase 1 expressed in Escherichia coli BL21 (DE3) using 22-mer and 18-mer DNA complementary strand as substrate after 1 hr by 15% polyacrylamide gel electrophoresis
Sequence of DNA ligase 1 (P18858 whole entry): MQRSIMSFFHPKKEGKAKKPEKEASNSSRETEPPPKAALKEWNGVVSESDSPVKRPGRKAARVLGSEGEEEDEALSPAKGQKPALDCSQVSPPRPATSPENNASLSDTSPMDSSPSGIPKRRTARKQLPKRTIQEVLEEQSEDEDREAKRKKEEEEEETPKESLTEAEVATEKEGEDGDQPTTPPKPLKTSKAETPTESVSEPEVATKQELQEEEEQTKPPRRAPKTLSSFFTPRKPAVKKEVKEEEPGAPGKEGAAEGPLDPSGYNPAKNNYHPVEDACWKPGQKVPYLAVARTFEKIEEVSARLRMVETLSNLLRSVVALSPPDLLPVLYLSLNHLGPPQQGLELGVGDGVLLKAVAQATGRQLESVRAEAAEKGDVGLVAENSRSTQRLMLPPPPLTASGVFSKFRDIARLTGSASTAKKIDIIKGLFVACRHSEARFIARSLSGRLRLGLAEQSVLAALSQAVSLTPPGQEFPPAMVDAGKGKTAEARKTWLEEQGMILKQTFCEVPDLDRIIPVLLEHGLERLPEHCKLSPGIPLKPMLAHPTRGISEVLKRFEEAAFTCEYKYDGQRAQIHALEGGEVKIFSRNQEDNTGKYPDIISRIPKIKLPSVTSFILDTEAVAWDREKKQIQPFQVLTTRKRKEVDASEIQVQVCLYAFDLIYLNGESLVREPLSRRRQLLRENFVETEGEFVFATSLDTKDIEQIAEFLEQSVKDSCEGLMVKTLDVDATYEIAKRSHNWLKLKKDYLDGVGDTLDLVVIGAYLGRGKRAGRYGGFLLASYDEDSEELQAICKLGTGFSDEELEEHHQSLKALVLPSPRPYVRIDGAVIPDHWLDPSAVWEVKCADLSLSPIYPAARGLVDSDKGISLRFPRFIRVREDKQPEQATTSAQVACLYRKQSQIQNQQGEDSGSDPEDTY

Salmonella typhimurium [5] = test: Bactericidal activity against Salmonella typhimurium TT15151 harboring LigA null mutant rescued with ATP-dependent DNA ligase assessed as bacterial cell viability at 0.5 to 2.5 times MIC after 5 hrs; assay type: functional, organism-based; details: Salmonella enterica subsp. enterica serovar Typhimurium
Bos taurus = species on record: Bos taurus; test: Displacement of ethidium bromide from calf thymus DNA assessed as relative fluorescence intensity at 250 uM
[6] = Inhibition of Mycobacterium tuberculosis DNA LigA using 22-mer and 18-mer DNA complementary strand as substrate after 1 hr by 15% polyacrylamide gel electrophoresis
[7] = Ratio of IC50 for Bacteriophage T4 DNA ligase to IC50 for Mycobacterium tuberculosis DNA LigA
Salmonella typhimurium [8] = test: Bactericidal activity against Salmonella typhimurium LT2 expressing LigA assessed as bacterial cell viability at 0.5 to 2.5 times MIC after 5 hrs; assay type: functional, organism-based; details: Salmonella enterica subsp. enterica serovar Typhimurium
[9] = Competitive inhibition of Mycobacterium tuberculosis DNA LigA using NDA+ as substrate by double reciprocal plot analysis
Escherichia coli [10] = test: Binding affinity to Escherichia coli pUC18 DNA after 1 hr by gel shift assay
[11] = Ratio of IC50 for human DNA ligase 1 to IC50 for Mycobacterium tuberculosis DNA LigA
[12] = Salmonella enterica, TT15151, 20 h
[13] = Salmonella enterica subsp. enterica serovar Typhimurium

C=CCOc1ccc(OCC=C)c(C(=O)NO)c1
MIC (Escherichia coli [1]; GR501, 20 h): 200 µg/mL (≈ 802 µM)
MIC (Salmonella typhimurium [2]; [12]): 150 µg/mL (≈ 602 µM)
MIC (Salmonella typhimurium [3]; [13]): inactive

C=CCOc1ccc(OCc2ccccc2)cc1C(=O)NO
MIC (Escherichia coli [1]; GR501, 20 h): 400 µg/mL (≈ 1340 µM)
MIC (Salmonella typhimurium [2]; [12]): 150 µg/mL (≈ 501 µM)
MIC (Salmonella typhimurium [3]; [13]): inactive

C=CCOc1ccccc1C(=O)NO
IC50 [4]: 62.3 µM
MIC (Escherichia coli [1]; GR501, 20 h): 90 µg/mL (≈ 466 µM)
IC50 (DNA ligase 1): 59.3 µM
Activity (Salmonella typhimurium [5]): Active
Activity (Bos taurus): inactive
IC50 [6]: 7.07 µM
Ratio IC50 [7]: 10
MIC (Salmonella typhimurium [2]; [12]): 70 µg/mL (≈ 362 µM)
Activity (Salmonella typhimurium [8]): Active
Ki [9]: 4.3 µM
Activity (Escherichia coli [10]): inactive
Ratio IC50 [11]: 10
MIC (Salmonella typhimurium [3]; Salmonella enterica, LT2, 20 h): 20 µg/mL (≈ 104 µM)

C=CCOc1c(OCc2ccccc2)cccc1C(=O)NO
MIC (Escherichia coli [1]): inactive
MIC (Salmonella typhimurium [2]; [13]): inactive
MIC (Salmonella typhimurium [3]; [13]): inactive

C=CCOc1cccc(C(=O)NO)c1OCC=C
MIC (Escherichia coli [1]): inactive
MIC (Salmonella typhimurium [2]; [12]): 400 µg/mL (≈ 1600 µM)
MIC (Salmonella typhimurium [3]; [13]): inactive

O=C(NO)c1ccc2ccccc2c1OCc1cccc(Cl)c1
IC50 [4]: 12 µM
MIC (Escherichia coli [1]): inactive
IC50 [6]: 20 µM
Ratio IC50 [7]: 10
Ratio IC50 [11]: 10

C=CCOc1cc(OCc2ccc(Br)cc2)ccc1C(=O)NO
MIC (Escherichia coli [1]): inactive
MIC (Salmonella typhimurium [2]; [12]): 40 µg/mL (≈ 106 µM)
MIC (Salmonella typhimurium [3]; [13]): inactive

C#CCOc1ccc(OCC=C)c(C(=O)NO)c1
MIC (Escherichia coli [1]; GR501, 20 h): 150 µg/mL (≈ 607 µM)
MIC (Salmonella typhimurium [2]; [13]): inactive
MIC (Salmonella typhimurium [3]; Salmonella enterica, LT2, 20 h): 600 µg/mL (≈ 2430 µM)

C=CCOc1ccc(C(=O)NO)c(OCC=C)c1
MIC (Escherichia coli [1]; GR501, 20 h): 150 µg/mL (≈ 602 µM)
MIC (Salmonella typhimurium [2]; [13]): inactive
MIC (Salmonella typhimurium [3]; Salmonella enterica, LT2, 20 h): 800 µg/mL (≈ 3210 µM)

C=CCOc1cc(OCc2cc(Cl)ccc2Cl)ccc1C(=O)NO
MIC (Escherichia coli [1]): inactive
MIC (Salmonella typhimurium [2]; [12]): 200 µg/mL (≈ 543 µM)
MIC (Salmonella typhimurium [3]; [13]): inactive

C=CCOc1ccc(OCc2cc(Cl)ccc2Cl)cc1C(=O)NO
MIC (Escherichia coli [1]; GR501, 20 h): 400 µg/mL (≈ 1090 µM)
MIC (Salmonella typhimurium [2]; [12]): 800 µg/mL (≈ 2170 µM)
MIC (Salmonella typhimurium [3]; [13]): inactive

O=C(NO)c1ccccc1OCc1cccc(Cl)c1
IC50 [4]: 8 µM
MIC (Escherichia coli [1]): inactive
IC50 [6]: 24 µM
Ratio IC50 [7]: 10
Ratio IC50 [11]: 10

O=C(NO)c1ccc2ccccc2c1OCc1ccc(Cl)c(Cl)c1
IC50 [4]: 5.5 µM
MIC (Escherichia coli [1]; GR501, 20 h): > 200 µg/mL
IC50 [6]: 10.6 µM
Ratio IC50 [7]: 10
Ratio IC50 [11]: 10

C=CCOc1ccc(OCc2ccc(Br)cc2)cc1C(=O)NO
MIC (Escherichia coli [1]; GR501, 20 h): 80 µg/mL (≈ 212 µM)
MIC (Salmonella typhimurium [2]; [12]): 20 µg/mL (≈ 52.9 µM)
MIC (Salmonella typhimurium [3]; [13]): inactive

O=C(NO)c1ccccc1OCC(O)Cn1cc(-c2ccccc2)nn1 (stereo not drawn)
IC50 [4]: 31.4 µM
MIC (Escherichia coli [1]; GR501, 20 h): 40 µg/mL (≈ 113 µM)
IC50 (DNA ligase 1): 41.8 µM
Activity (Bos taurus): inactive
IC50 [6]: 11.4 µM
Ratio IC50 [7]: 10
MIC (Salmonella typhimurium [2]; [12]): 50 µg/mL (≈ 141 µM)
Activity (Escherichia coli [10]): inactive
Ratio IC50 [11]: 10
MIC (Salmonella typhimurium [3]; Salmonella enterica, LT2, 20 h): 30 µg/mL (≈ 84.7 µM)

CCCCCCOc1c(C(=O)NO)ccc2ccccc12
IC50 [4]: 9.6 µM
MIC (Escherichia coli [1]; GR501, 20 h): > 200 µg/mL
IC50 [6]: 13.6 µM
Ratio IC50 [7]: 10
Ratio IC50 [11]: 10

O=C(NO)c1ccccc1OCc1ccc(Cl)c(Cl)c1
IC50 [4]: < 20 µM
MIC (Escherichia coli [1]): inactive
IC50 [6]: 20 µM
Ratio IC50 [7]: 10
Ratio IC50 [11]: 10
